The values that follow come from patent publication US20050239755A1, “External preparation for inhibiting keloid formation” (priority 2002, published 2005).

Test [1] concerns human fibroblast derived from keloid. Briefly: Test of inhibition of collagen gel shrinking (human fibroblast derived from keloid). Format: cell-based. To be noted: for Shrinking rate: after 24 hours. Here is the method:
(§1) Test of Inhibition of Collagen Gel Shrinking. A collagen solution (1.5 mg/mL) (1 mL) and a suspension of human normal fibroblast or human fibroblast derived from keloid (1×10^5 cells) (1 mL) were added to a Petri dish (diameter; 35 mm) and mixed. The mixture was warmed for about 10 minutes in an incubator (37° C., 5% CO2) to prepare collagen gel. Further broth (1 mL) was added over thereon and was left for about 3 hours in the incubator (37° C., 5% CO2). The collagen gel was released from the Petri dish, and thereto was added a solution containing acetylsalicylic acid (its final concentration was respectively 0, 0.05, 0.5, 5, and 50 μM). The suspension was cultured in the incubator (37° C., 5% CO2) and after 24 hours the shrinking rate was evaluated.

The test system of test [2] is human normal fibroblast. Briefly: Test of inhibition of collagen gel shrinking (human normal fibroblast). As to conditions: for Shrinking rate of collagen: after 24 hours. The class given is cell-based. As for the experimental part:
as §1

Regarding `CC(=O)Oc1ccccc1C(=O)O` [Acetylsalicylic acid], the “shrinking of collagen (in words)” value in test [1] (Table 10) and in test [2] (Table 9) was “inhibited” throughout. In addition, the Shrinking rate was determined as 21% in test [1] (acetylsalicylic acid 0.05 μM), 19% in test [1] (acetylsalicylic acid 0.5 μM), 24% in test [1] (acetylsalicylic acid 5 μM) and 20% in test [1] (acetylsalicylic acid 50 μM). Also, the “Shrinking rate of collagen” value in test [2] (acetylsalicylic acid 0.05 μM) is 23%; in test [2] (acetylsalicylic acid 0.5 μM) it was 12%; in test [2] (acetylsalicylic acid 5 μM), 10%; in test [2] (acetylsalicylic acid 50 μM), 14%.
